Laboratory results published in patent USRE39088E1, “Amide compounds and use of the same” (Japan Tobacco, Inc., priority 1995, dated 2006).
Structures can show the parent of a compound that is named as a salt. Where two headings read alike, the source gives them in different places.

Key:
IL-8 = assay: Suppression of production of inflammatory cytokines: IL-8 in LPS-stimulated human peripheral blood monocytes (ELISA); format: cell-based; settings: supernatant 20 hours after LPS
Experimental: (§1) Suppression of production of inflammatory cytokines
(§2) Thirty ml of human peripheral blood added with heparin was placed on Ficol-Paque (15 ml), and centrifuged at 400 G for 40 minutes at room temperature. The obtained monocyte fraction layers were collected and washed three times with E-MEM medium. The cells were adjusted to a final concentration of 0.5×10^5 cells/800 μl with RPMI-1640 medium containing 5% bovine fetal serum (2-mercaptoethanol), and seeded in a 24 well plant by 800 μl. A test sample (100 μl) was added and 100 μl of lipopolysarcharide (LPS, 100 μg/ml) was added one hour later. The supernatant was taken at 20 hours after stimulation with LPS, and amounts of various cytokines were determined using an ELISA kit.

ALT in blood = assay: Suppression of LPS/D-galactosamine-induced hepatitis; format: in vivo; settings: tail vein, 10 minutes before LPS/D-galactosamine, ALT in blood at 6 hours, male C57BL/6 mice; for inhibition in vivo at 5 mg/kg / inhibition in vivo at 10 mg/kg: Mus musculus, iv
Experimental: Suppression of LPS/D-galactosamine-induced hepatitis
LPS (5 μg/kg)D-galactosamine (500 mg/kg) in physiological saline was intraperitoneally injected to male C57BL/6 mice to induce hepatitis. Six hours after the injection of LPS/D-galactosamine in physiological saline, blood was taken from the mice orbital venosus plexus. Plasma was separated from the blood, and ALT in blood was determined by a biochemical analyzer. The test sample was administered from the tail vein at 10 minutes before the injection of LPS/D-galactosamine in physiological saline, and the degree of suppression was investigated. The suppression by the test sample is shown in the ratio relative to the suppression in the control group.
Suppression (%)=100-(ALT amount of group treated with test sample/ALT amount of control group)×100

IL-1 = assay: Suppression of production of inflammatory cytokines: IL-1 in LPS-stimulated human peripheral blood monocytes (ELISA); format: cell-based; settings: Monocyte, read-out: IC50 (μM) IL-1β
Experimental: as §1, §2

TNF-α = assay: Suppression of production of inflammatory cytokines: TNF-α in LPS-stimulated human peripheral blood monocytes (ELISA); format: cell-based; settings: Monocyte, read-out: IC50 (μM) TNF
Experimental: as §1, §2

[1] = system: TNF α in the peritoneal fluid; assay: Suppression of LPS-induced peritonitis; format: in vivo, male Balb/c mice; settings: test sample 50 mg/kg from the tail vein 60 minutes before LPS i.p.; TNF α in peritoneal fluid one hour after LPS, relative to control group; ** = p<0.01 from control
Experimental: Suppression of LPS-induced peritonitis
LPS (30 μg/ml, 1 ml) prepared with physiological saline containing 0.5% CMC (carboxymethylcellulose) was infra-peritoneally injected into male Balb/c mice to induce-peritonitis. One hour later, the mice were killed with carbon dioxide, and the amount of TNF α in the peritoneal fluid was determined using an ELISA kit.
The test sample (50 mg/kg) was administered from the tail vein at 60 minutes before LPS injection, and the degree of suppression was investigated. The suppression by the test sample is shown in the ratio relative to the suppression in the control group.
Suppression (%)=100-(TNR amount of group treated with test sample/TNF amount of control group)×100
The results are shown in Table 89 wherein ** means the presence of significant difference by p<0.01 from the control group.

[2] = LPS-stimulated human peripheral blood monocytes, supernatant 20 hours after LPS, ELISA

SMILES | IC50 (IL-8; Homo sapiens, Monocyte, 20 h) [µM] | inhibition in vivo at 10 mg/kg (ALT in blood) [%] | also measured
CNCCCCOc1c(Cl)cc(C(=O)N[C@@H](Cc2ccccc2)C(=O)OC)c(O)c1Cl.Cl [Example 1, N-[3,5-Dichloro-2-hydroxy-4-(4-methylaminobutoxy)benzoyl]-L-phenylalanine methyl ester hydrochloride] |  | 78 | IC50 (IL-8; Monocyte): 0.009 µM; inhibition in vivo at 5 mg/kg (ALT in blood; dose 5 mg/kg): 88%; IC50 (IL-1; Homo sapiens, 20 h): 0.002 µM; IC50 (TNF-α; Homo sapiens, 20 h): 0.008 µM; Inhibition (%) [1]: 64** %
CCOC(=O)[C@H](Cc1ccccc1)NC(=O)c1cc(Cl)c(OCCN2CCN(C)CC2)c(Cl)c1O [Example 2, N-{3,5-Dichloro-2-hydroxy-4-[2-(4-methylpiperazin-1-yl)ethoxy]-benzoyl}-L-phenylalanine ethyl ester dihydrochloride] | 0.01 | 65 | 
COC(=O)[C@H](Cc1ccccc1)NC(=O)c1ccc(OCCCN)cc1O [Example 3] | > 30 |  | IC50 (IL-1; [2]): > 30 µM; IC50 (TNF-α; [2]): 14 µM
COC(=O)[C@H](Cc1ccccc1)NC(=O)c1ccc(OCCCCN)cc1O.Cl [Example 4] | 2 | 42 | IC50 (IL-1; [2]): 3 µM; IC50 (TNF-α; [2]): 2 µM; Inhibition (%) [1]: 38** %
COC(=O)[C@H](Cc1ccccc1)NC(=O)c1ccc(OCCCCCN)cc1O [Example 5] | 6 |  | IC50 (IL-1; [2]): 75 µM; IC50 (TNF-α; [2]): 6 µM
COC(=O)[C@H](Cc1ccccc1)NC(=O)c1ccc(OCCCCCCN)cc1O [Example 6] | 14 |  | IC50 (IL-1; [2]): 14 µM; IC50 (TNF-α; [2]): 6 µM
CCOC(=O)C(Cc1ccccc1)NC(=O)c1cc(Cl)c(OCCCCNC)c(Cl)c1O (stereo not drawn) [Example 22] |  | 51 | IC50 (IL-8): < 0.01 µM
CNCCCCOc1c(Cl)cc(C(=O)N[C@@H](Cc2ccccc2)C(=O)OC)c(OC(=O)c2ccccc2)c1Cl [Example 105, N-[2-Benzoyloxy-3,5-dichloro-4-(4-methylaminobutoxy)benzoyl]-L-phenylalanine methyl ester hydrochloride] | 0.005 | 40 | IC50 (IL-1; [2]): 0.001 µM; IC50 (TNF-α; [2]): 0.004 µM
CNCCCCOc1c(Cl)cc(C(=O)N[C@@H](Cc2ccccc2)C(=O)O)c(O)c1Cl [Example 126, N-[3,5-Dichloro-2-hydroxy-4-(4-methylaminobutoxy)benzoyl]-L-phenylalanine hydrochloride] | 0.8 | 27 | 
Cl.NCCCCOc1c(Cl)cc(C(=O)N[C@@H](Cc2ccccc2)C(=O)Nc2ccccc2)c(O)c1Cl [Example 138, N-[3,5-Dichloro-2-hydroxy-4-(4-aminobutoxy)benzoyl]-L-phenyl-alanylaminobenzene hydrochloride] |  |  | IC50 (IL-8): 1 µM; Inhibition (%) (ALT in blood; dose 5 mg/kg): 22%
CCOC(=O)[C@H](Cc1ccccc1)NC(=O)c1ccc(-c2noc(CCCCNC)n2)cc1O.Cl [Example 148, (2S)-3-Phenyl-2-[4-[5-(4-methylaminobutyl)-1,2,4-oxadizol-3-yl]-2-hydroxybenzoylamino]propionic acid ethyl ester hydrochloride] |  |  | IC50 (IL-8): 4 µM; Inhibition (%) [1]: 19%
CCOC(=O)[C@H](Cc1ccccc1)NC(=O)c1cc(Cl)c(OC(=O)CCN2CCNCC2)c(Cl)c1O [Example 155, N-[3,5-Dichloro-2-hydroxy-4-(3-piperazinylpropionyloxy)benzoyl]-L-phenylalanine ethyl ester dihydrochloride] |  |  | IC50 (IL-8; Monocyte): 0.2 µM; Inhibition (%) [1]: 28** %

Now from value to molecule, other results behind:

IC50 (IL-8; Homo sapiens, Monocyte, 20 h) [µM] | SMILES | inhibition in vivo at 10 mg/kg (ALT in blood) [%] | also measured
< 0.3 | CNCCCCOc1cc(O)c(C(=O)N[C@@H](Cc2ccccc2)C(=O)OC)cc1Cl.Cl [Example 9] |  | Inhibition (%) [1]: 21%
0.6 | CNCCCCOc1c(Cl)cc(C(=O)N[C@@H](Cc2ccccc2)C(=O)OC)c(O)c1C [Example 10] | 77 | 
< 0.01 | CCOC(=O)C(Cc1ccccc1)NC(=O)c1cc(Cl)c(OCCCCN)c(Cl)c1O.Cl (stereo not drawn) [Example 19] |  | Inhibition (%) [1]: 32** %
< 0.01 | CC(C)OC(=O)[C@H](Cc1ccccc1)NC(=O)c1cc(Cl)c(OCCCCN)c(Cl)c1O [Example 27] | 67 | 
< 0.01 | CCCCCCOC(=O)[C@H](Cc1ccccc1)NC(=O)c1cc(Cl)c(OCCCCNC)c(Cl)c1O [Example 31] |  | inhibition in vivo at 5 mg/kg (ALT in blood; dose 5 mg/kg): 87%
0.5 | COC(=O)[C@H](Cc1ccccc1)NC(=O)c1cc(Cl)c(OCCCCNC(=N)N)c(Cl)c1O [Example 32] | 78 | 
0.3 | COC(=O)[C@H](Cc1ccccc1)NC(=O)c1cc(Cl)c(OCCOCCN(C)C)c(Cl)c1O [Example 37] | 80 | 
0.004 | NCCCCOc1c(Cl)cc(C(=O)N[C@@H](Cc2ccccc2)C(=O)OC2CCCCC2)c(O)c1Cl [Example 45] | 30 | IC50 (IL-1; [2]): 0.0008 µM; IC50 (TNF-α; [2]): 0.004 µM
< 0.01 | CNCCCCOc1c(Cl)cc(C(=O)N[C@@H](Cc2ccccc2)C(=O)OC2CCCCC2)c(O)c1Cl [Example 46] | 57 | 
28 | CNCCCCOc1c(Cl)cc(C(=O)N[C@@H](Cc2ccccc2)C(=O)NCC(=O)O)c(O)c1Cl [Example 50] | 15 | 
< 0.01 | CCSC(=O)C(Cc1ccccc1)NC(=O)c1cc(Cl)c(OCCCCN)c(Cl)c1O.Cl (stereo not drawn) [Example 52] |  | Inhibition (%) [1]: 31** %
0.03 | COC(=O)[C@H](Cc1ccccc1)NC(=O)c1cc(Cl)c(OCCN2CCNC(C)C2)c(Cl)c1O (stereo partly drawn) [Example 60] | 42 | 
< 0.01 | CCOC(=O)C(Cc1ccccc1)NC(=O)c1cc(Cl)c(OCCCCNC)c(Cl)c1OC(C)=O (stereo not drawn) [Example 117] | 54 | 
0.2 | NCCCCOc1c(Cl)cc(C(=O)N[C@@H](Cc2ccccc2)C(=O)O)c(O)c1Cl [Example 127] |  | inhibition in vivo at 5 mg/kg (ALT in blood; dose 5 mg/kg): 82%
